Conditions: in vivo
Procedure: Subjects were medically followed during the nebulization phase and the post-nebulization period for the development of side effects, especially those related to the respiratory system. In cases of significant hypoxemia and/or bronchospasm, the nebulization and lavage processes were suspended, and the patient was treated as clinically indicated.

## colistimethate sodium [CMS]
  deterioration of oxygenation during the nebulization: no instances of clinically important deterioration of oxygenation

— PMC9686516, “Pharmacokinetic Characteristics of Nebulized Colistimethate Sodium Using Two Different Types of Nebulizers in Critically Ill Patients with Ventilator-Associated Respiratory Infections” (Antibiotics, 2022)
